Experimental data published in paper PMC3598812, “Evaluation of Anti-Hyperalgesic and Analgesic Effects of Two Benzodiazepines in Human Experimental Pain: A Randomized Placebo-Controlled Study” (PLoS ONE, 2013).
“And” between values parts separate entries of the source, which are not always exact repeats. Equal entries are not always repeated. “Also recorded” adds a separate entry of the source.

What was measured:
healthy male volunteers [1] = experiment: Cutaneous repeated (20 stimuli) electrical stimulation, VAS; assay type: in vivo, human; design: AUC of VAS during 20 cutaneous electrical stimuli: unit not given beside the values; conditions: mean (SD); for Maximal VAS during 20 cutaneous electrical stimuli: VAS 0-10
Procedure: (§1) The stimulus burst used for single stimulus was repeated for a train of 20 pulses at 2 Hz, at an intensity corresponding to the temporal summation threshold. During this 10 s stimulation, pain intensity was continuously rated by the subject with an electronic VAS, and the area under the curve (AUC) was computed. Additionally, the maximal VAS during stimulation was recorded.

healthy male volunteers [2] = experiment: Pain rating (VAS) after graded von Frey hair stimulation in the capsaicin hyperalgesic area; assay type: in vivo, human; conditions: VAS 0-10, single oral dose (clobazam 20 mg, clonazepam 1 mg, tolterodine 1 mg), mean (SD)
Procedure: Additionally, mechanical pain sensitivity was assessed using a set of seven weighted pinprick stimuli to obtain a stimulus-response function. The test was applied 1 cm inside the outer border of the pinprick hyperalgesic area, using a set of 7 graded von Frey hair mechanical stimulators with fixed stimulus intensities (custom-made at Aalborg University, Denmark). The flat contact area of the stimulators has a 0.2 mm diameter, and the 7 stimulators exert forces of 8, 16, 32, 64, 128, 256 and 512 mN. The order of stimulation was defined randomly by computer. The stimulators were applied at a rate of 2 s on/2 s off. Subjects were asked to give a pain rating for each stimulus on a 10 cm VAS. Two assessments for each stimulation were made and the mean of these 2 measurements was used for the data analysis.

healthy male volunteers [3] = experiment: Intramuscular repeated (20 stimuli) electrical stimulation, VAS; assay type: in vivo, human; design: AUC of VAS during 20 intramuscular electrical stimuli: unit not given beside the values; conditions: for Maximal VAS during 20 intramuscular electrical stimuli: VAS 0-10; for Maximal VAS during 20 intramuscular electrical stimuli / AUC of VAS during 20 intramuscular electrical stimuli: mean (SD)
Procedure: as §1
A needle was placed in the tibialis anterior muscle, 14 cm distal from the caudal end of the patella and 20 mm in depth. The same single and repeated stimulation patterns and the same procedure described for cutaneous stimulation were used.

patients / volunteers = conditions: patients treated for panic disorder; ref Micromedex 2009; cited from earlier work
healthy male volunteers [4] = experiment: Pressure pain detection and tolerance thresholds (pressure algometer, 2nd toe); assay type: in vivo, human; conditions: mean (SD)
Procedure: Pain detection and tolerance thresholds were measured with an electronic pressure algometer (Somedic, Hörby, Sweden) applied at the center of the pulp of the 2nd toe. […] The pressure was increased from 0 at a rate of 30 kPa/s to a maximum pressure of 1200 kPa. Pain detection threshold was defined as the point at which the pressure sensation turned to pain. Pain tolerance threshold was defined as the point at which the subject felt the pain as intolerable. If the threshold was not reached at 1200 kPa, this value was considered as threshold. Three assessments were made and the mean of these 3 measurements were used for the data analysis.

[5] = baseline before medication, per drug session
[6] = single oral dose (clobazam 20 mg, clonazepam 1 mg, tolterodine 1 mg), 30 min after medication
[7] = single oral dose (clobazam 20 mg, clonazepam 1 mg, tolterodine 1 mg), 60 min after medication
[8] = single oral dose (clobazam 20 mg, clonazepam 1 mg, tolterodine 1 mg), 90 min after medication
[9] = single oral dose (clobazam 20 mg, clonazepam 1 mg, tolterodine 1 mg), 120 min after medication
[10] = single oral dose (clobazam 20 mg, clonazepam 1 mg, tolterodine 1 mg), after flumazenil 0.2 mg iv

SMILES: O=C1CN=C(c2ccccc2Cl)c2cc([N+](=O)[O-])ccc2N1 [Clonazepam]
- Maximal VAS during 20 cutaneous electrical stimuli (healthy male volunteers [1]; [5]): 4.9 (1.6)
- Maximal VAS during 20 cutaneous electrical stimuli (healthy male volunteers [1]; [6]): 5.4 (2.0)
- Maximal VAS during 20 cutaneous electrical stimuli (healthy male volunteers [1]; [7]): 5.0 (2.3)
- Maximal VAS during 20 cutaneous electrical stimuli (healthy male volunteers [1]; [8]): 4.7 (2.1)
- Maximal VAS during 20 cutaneous electrical stimuli (healthy male volunteers [1]; [9]): 4.4 (1.6)
- Maximal VAS during 20 cutaneous electrical stimuli (healthy male volunteers [1]; [10]): 4.2 (1.6)
- AUC of VAS during 20 cutaneous electrical stimuli (healthy male volunteers [1]; [5]): 359 (144)
- AUC of VAS during 20 cutaneous electrical stimuli (healthy male volunteers [1]; [6]): 352 (131)
- AUC of VAS during 20 cutaneous electrical stimuli (healthy male volunteers [1]; [7]): 349 (185)
- AUC of VAS during 20 cutaneous electrical stimuli (healthy male volunteers [1]; [8]): 351 (141)
- AUC of VAS during 20 cutaneous electrical stimuli (healthy male volunteers [1]; [9]): 344 (148)
- AUC of VAS during 20 cutaneous electrical stimuli (healthy male volunteers [1]; [10]): 322 (137)
- VAS after von Frey hair 8 mN (healthy male volunteers [2]; 30 min after medication): 1.4 (1.5)
- VAS after von Frey hair 16 mN (healthy male volunteers [2]; 30 min after medication): 1.6 (1.2)
- VAS after von Frey hair 32 mN (healthy male volunteers [2]; 30 min after medication): 1.9 (1.5)
- VAS after von Frey hair 64 mN (healthy male volunteers [2]; 30 min after medication): 2.8 (1.8)
- VAS after von Frey hair 128 mN (healthy male volunteers [2]; 30 min after medication): 3.2 (4.2)
- VAS after von Frey hair 256 mN (healthy male volunteers [2]; 30 min after medication): 4.2 (2.2)
- VAS after von Frey hair 512 mN (healthy male volunteers [2]; 30 min after medication): 5.2 (2.1)
- VAS after von Frey hair 8 mN (healthy male volunteers [2]; 60 min after medication): 1.2 (0.9)
- VAS after von Frey hair 16 mN (healthy male volunteers [2]; 60 min after medication): 1.8 (1.9)
- VAS after von Frey hair 32 mN (healthy male volunteers [2]; 60 min after medication): 2.0 (2.0)
- VAS after von Frey hair 64 mN (healthy male volunteers [2]; 60 min after medication): 2.7 (2.0)
- VAS after von Frey hair 128 mN (healthy male volunteers [2]; 60 min after medication): 3.5 (2.0)
- VAS after von Frey hair 256 mN (healthy male volunteers [2]; 60 min after medication): 4.1 (1.8)
- VAS after von Frey hair 512 mN (healthy male volunteers [2]; 60 min after medication): 5.1 (2.0)
- VAS after von Frey hair 8 mN (healthy male volunteers [2]; 90 min after medication): 0.8 (0.8)
- VAS after von Frey hair 16 mN (healthy male volunteers [2]; 90 min after medication): 1.3 (1.0)
- VAS after von Frey hair 32 mN (healthy male volunteers [2]; 90 min after medication): 1.8 (1.4)
- VAS after von Frey hair 64 mN (healthy male volunteers [2]; 90 min after medication): 2.1 (1.6)
- VAS after von Frey hair 128 mN (healthy male volunteers [2]; 90 min after medication): 2.8 (1.7)
- VAS after von Frey hair 256 mN (healthy male volunteers [2]; 90 min after medication): 4.4 (2.0)
- VAS after von Frey hair 512 mN (healthy male volunteers [2]; 90 min after medication): 5.3 (2.1)
- VAS after von Frey hair 8 mN (healthy male volunteers [2]; 120 min after medication): 1.0 (0.8)
- VAS after von Frey hair 16 mN (healthy male volunteers [2]; 120 min after medication): 1.4 (1.2)
- VAS after von Frey hair 32 mN (healthy male volunteers [2]; 120 min after medication): 2.1 (1.7)
- VAS after von Frey hair 64 mN (healthy male volunteers [2]; 120 min after medication): 2.3 (1.5)
- VAS after von Frey hair 128 mN (healthy male volunteers [2]; 120 min after medication): 2.9 (1.9)
- VAS after von Frey hair 256 mN (healthy male volunteers [2]; 120 min after medication): 3.9 (2.2)
- VAS after von Frey hair 512 mN (healthy male volunteers [2]; 120 min after medication): 5.0 (1.9)
- VAS after von Frey hair 8 mN (healthy male volunteers [2]; after flumazenil 0.2 mg iv): 0.6 (0.6)
- VAS after von Frey hair 16 mN (healthy male volunteers [2]; after flumazenil 0.2 mg iv): 1.4 (1.2)
- VAS after von Frey hair 32 mN (healthy male volunteers [2]; after flumazenil 0.2 mg iv): 1.6 (1.4)
- VAS after von Frey hair 64 mN (healthy male volunteers [2]; after flumazenil 0.2 mg iv): 2.2 (1.7)
- VAS after von Frey hair 128 mN (healthy male volunteers [2]; after flumazenil 0.2 mg iv): 2.6 (1.9)
- VAS after von Frey hair 256 mN (healthy male volunteers [2]; after flumazenil 0.2 mg iv): 3.8 (1.7)
- VAS after von Frey hair 512 mN (healthy male volunteers [2]; after flumazenil 0.2 mg iv): 4.9 (1.7)
- Maximal VAS during 20 intramuscular electrical stimuli (healthy male volunteers [3]; [5]): 4.3 (1.4)
- Maximal VAS during 20 intramuscular electrical stimuli (healthy male volunteers [3]; [9]): 3.2 (2.4)
- Maximal VAS during 20 intramuscular electrical stimuli (healthy male volunteers [3]; [10]): 2.8 (2.0)
- AUC of VAS during 20 intramuscular electrical stimuli (healthy male volunteers [3]; [5]): 307 (138)
- AUC of VAS during 20 intramuscular electrical stimuli (healthy male volunteers [3]; [9]): 236 (204)
- AUC of VAS during 20 intramuscular electrical stimuli (healthy male volunteers [3]; [10]): 209 (178)
- Maximal VAS during 20 intramuscular electrical stimuli, comparison among drugs (healthy male volunteers [3]; subgroup analysis (n = 8), pairwise comparisons vs tolterodine and clobazam): lower values; also recorded: Significantly lower maximal VAS with clonazepam, compared with tolterodine and clobazam in the subgroup analysis
- Dizziness, share of patients (patients / volunteers): 8%
- Somnolence, share of patients (patients / volunteers): approximately 37%
- Pressure pain detection threshold (healthy male volunteers [4]; [5]): 416 (80) kPa
- Pressure pain tolerance threshold (healthy male volunteers [4]; [5]): 685 (172) kPa and 749 (242) kPa
- Pressure pain detection threshold (healthy male volunteers [4]; [9]): 383 (100) kPa
- Pressure pain tolerance threshold (healthy male volunteers [4]; [9]): 636 (147) kPa and 712 (262) kPa
- Pressure pain detection threshold (healthy male volunteers [4]; [10]): 389 (112) kPa
- Pressure pain tolerance threshold (healthy male volunteers [4]; [10]): 390.8 (199) kPa and 734.7 (279) kPa
